Measurements published in the NIST ThermoML archive (doi:10.1016/j.jct.2011.06.001).

Columns and labels:
[1] = molar enthalpy of vaporization or sublimation; conditions: 333.15 K, Crystal
[2] = Crystal; DTA
[3] = molar heat capacity at constant pressure; conditions: 101.33 kPa, Small sample (50 mg) DSC
[4] = Molar enthalpy of transition or fusion; conditions: Crystal; DSC

[CH]1C=CC=C1.[CH]1C=CC=C1.[Fe] [ferrocene]
[1]
Conditions | molar enthalpy [kcal/mol]
DSC | 17.3
Static calorimetry | 17.5

Conditions | Molar enthalpy of transition or fusion [kcal/mol] | Normal melting temperature [°C]
[2] | – | 175
[4] | 4.25 | –

molar heat capacity at constant pressure [J/K/mol], [3]
Conditions | Crystal | Gas
293 K | 186.22 | 163.5
294 K | 186.78 | 164.13
295 K | 187.52 | 164.76
296 K | 188.08 | 165.39
297 K | 189.01 | 166.02
298 K | 189.75 | 166.65
298.15 K | 189.75 | –
299 K | 190.5 | 167.27
300 K | 191.24 | 167.9
301 K | 191.8 | 168.53
302 K | 192.36 | 169.15
303 K | 193.1 | 169.78
304 K | 193.84 | 170.4
305 K | 194.4 | 171.03
306 K | 195.15 | 171.65
307 K | 195.7 | 172.27
308 K | 196.45 | 172.9
309 K | 197.19 | 173.52
310 K | 197.94 | 174.14
311 K | 198.31 | 174.76
312 K | 199.24 | 175.38
313 K | 199.8 | 176
314 K | 200.54 | 176.61
315 K | 201.29 | 177.23
316 K | 202.03 | 177.85
317 K | 202.77 | 178.46
318 K | 203.33 | 179.07
319 K | 204.08 | 179.69
320 K | 204.45 | 180.3
321 K | 205.38 | 180.91
322 K | 205.94 | 181.52
323 K | 207.05 | 182.13
324 K | 207.61 | 182.74
325 K | 208.35 | 183.35
326 K | 209.1 | 183.96
327 K | 209.66 | 184.56
328 K | 210.22 | 185.17
329 K | 210.77 | 185.77
330 K | 211.33 | 186.37
331 K | 212.26 | 186.98
332 K | 213.01 | 187.58
333 K | 213.75 | 188.18
334 K | 214.49 | 188.78
335 K | 215.24 | 189.37
336 K | 215.8 | 189.97
337 K | 216.54 | 190.57
338 K | 217.28 | 191.16
339 K | 218.21 | 191.76
340 K | 218.77 | 192.35
341 K | 219.7 | 192.94
342 K | 220.26 | 193.53
343 K | 221.01 | 194.12
344 K | 221.56 | 194.71
345 K | 222.49 | 195.3
346 K | 223.24 | 195.88
347 K | 223.8 | 196.47
348 K | 223.98 | 197.05
349 K | 225.1 | 197.64
350 K | 226.77 | 198.22
351 K | 226.59 | 198.8
352 K | 226.96 | 199.38
353 K | 227.7 | 199.96

[Ni+2].c1cc[cH-]c1.c1cc[cH-]c1 [nickelocene]
[1]
Conditions | molar enthalpy [kcal/mol]
DSC | 17.1
Static calorimetry | 17.2

Conditions | Molar enthalpy of transition or fusion [kcal/mol] | Normal melting temperature [°C]
[2] | – | 177.7
[4] | 4.54 | –

molar heat capacity at constant pressure [J/K/mol], [3]
Conditions | Crystal | Gas
293 K | 199.08 | 171.05
294 K | 199.83 | 171.62
295 K | 200.59 | 172.19
296 K | 201.35 | 172.76
297 K | 202.1 | 173.33
298 K | 203.05 | 173.9
298.15 K | 203.23 | –
299 K | 203.8 | 174.47
300 K | 204.37 | 175.04
301 K | 205.31 | 175.6
302 K | 206.07 | 176.17
303 K | 206.63 | 176.74
304 K | 207.2 | 177.31
305 K | 208.15 | 177.88
306 K | 208.9 | 178.45
307 K | 209.66 | 179.02
308 K | 210.6 | 179.58
309 K | 211.36 | 180.15
310 K | 212.11 | 180.72
311 K | 212.68 | 181.29
312 K | 213.43 | 181.85
313 K | 214 | 182.42
314 K | 214.76 | 182.99
315 K | 215.51 | 183.55
316 K | 216.08 | 184.12
317 K | 216.83 | 184.68
318 K | 217.59 | 185.25
319 K | 218.35 | 185.81
320 K | 218.91 | 186.37
321 K | 219.67 | 186.94
322 K | 220.23 | 187.5
323 K | 221.37 | 188.06
324 K | 222.31 | 188.62
325 K | 223.07 | 189.19
326 K | 223.82 | 189.75
327 K | 224.58 | 190.31
328 K | 225.14 | 190.87
329 K | 225.71 | 191.43
330 K | 226.09 | 191.98
331 K | 226.84 | 192.54
332 K | 227.6 | 193.1
333 K | 228.17 | 193.66
334 K | 228.92 | 194.21
335 K | 229.49 | 194.77
336 K | 230.24 | 195.32
337 K | 230.62 | 195.88
338 K | 231.19 | 196.43
339 K | 231.76 | 196.98
340 K | 232.51 | 197.54
341 K | 233.08 | 198.09
342 K | 233.83 | 198.64
343 K | 234.21 | 199.19
344 K | 234.97 | 199.74
345 K | 235.53 | 200.29
346 K | 236.1 | 200.84
347 K | 236.67 | 201.38
348 K | 237.23 | 201.93
349 K | 237.99 | 202.48
350 K | 238.56 | 203.02
351 K | 238.93 | 203.56
352 K | 239.69 | 204.11
353 K | 240.07 | 204.65
